The results in this text go back to ChEMBL document CHEMBL4017490, “Design, Synthesis, and Pharmacological Evaluation of Novel Multisubstituted Pyridin-3-amine Derivatives as Multitargeted Protein Kinase Inhibitors for the Treatment of Non-Small Cell Lung Cancer” (J Med Chem, 2017).

A value given as a limit tells only on which side of the number the result lay.

Data set [1] addresses Fibroblast growth factor receptor 1 (Homo sapiens, UniProt P11362). In words: Inhibition of recombinant human FGFR1 using poly (Glu,Tyr) 4:1 as substrate after 60 mins by ELISA.
The target of data set [2] is Fibroblast growth factor receptor 2 (Homo sapiens, UniProt P21802).
Description: Inhibition of recombinant human FGFR2 using poly (Glu,Tyr) 4:1 as substrate after 60 mins by ELISA
Data set [3] concerns the target Fibroblast growth factor receptor 3 (Homo sapiens, UniProt P22607). As to the kind of experiment: Inhibition of recombinant human FGFR3 using poly (Glu,Tyr) 4:1 as substrate after 60 mins by ELISA.
The target in data set [4] is Fibroblast growth factor receptor 4 (Homo sapiens, UniProt P22455). In words: Inhibition of recombinant human FGFR4 using poly (Glu,Tyr) 4:1 as substrate after 60 mins by ELISA.
Data set [5] deals with Vascular endothelial growth factor receptor 2 (Homo sapiens, UniProt P35968). As to the kind of experiment: Inhibition of recombinant KDR (unknown origin) using poly (Glu,Tyr) 4:1 as substrate after 60 mins by ELISA.
Data set [6] addresses Epidermal growth factor receptor (Homo sapiens, UniProt P00533, L858R/T790M). In words: Inhibition of recombinant EGFR T790M/L858R mutant (unknown origin) using poly (Glu,Tyr) 4:1 as substrate after 60 mins by ELISA.
The target of data set [7] is Discoidin domain-containing receptor 2 (Homo sapiens, UniProt Q16832). In words: Inhibition of recombinant DDR2 (unknown origin) using poly (Glu,Tyr) 4:1 as substrate after 60 mins by ELISA.
For data set [8], the target named is Vascular endothelial growth factor receptor 1 (Homo sapiens, UniProt P17948). In words: Inhibition of recombinant VEGFR-1 (unknown origin) using poly (Glu,Tyr) 4:1 as substrate after 60 mins by ELISA.
In the next data set the target is Insulin receptor (Homo sapiens, UniProt P06213). As to the kind of experiment: Inhibition of recombinant IR (unknown origin) using poly (Glu,Tyr) 4:1 as substrate after 60 mins by ELISA.
Data set [9] addresses Platelet-derived growth factor receptor alpha (Homo sapiens, UniProt P16234). As to the kind of experiment: Inhibition of recombinant PDGFR-alpha (unknown origin) using poly (Glu,Tyr) 4:1 as substrate after 60 mins by ELISA.
In data set [10] the target is Mast/stem cell growth factor receptor Kit (Homo sapiens, UniProt P10721). As to the kind of experiment: Inhibition of recombinant c-Kit (unknown origin) using poly (Glu,Tyr) 4:1 as substrate after 60 mins by ELISA.
Data set [11] addresses Hepatocyte growth factor receptor (Homo sapiens, UniProt P08581). In words: Inhibition of recombinant c-Met (unknown origin) using poly (Glu,Tyr) 4:1 as substrate after 60 mins by ELISA.
In data set [12] the target is T1, Tyrosine-protein kinase receptor UFO (Homo sapiens, UniProt P30530).
T1 sequence (P30530 whole entry): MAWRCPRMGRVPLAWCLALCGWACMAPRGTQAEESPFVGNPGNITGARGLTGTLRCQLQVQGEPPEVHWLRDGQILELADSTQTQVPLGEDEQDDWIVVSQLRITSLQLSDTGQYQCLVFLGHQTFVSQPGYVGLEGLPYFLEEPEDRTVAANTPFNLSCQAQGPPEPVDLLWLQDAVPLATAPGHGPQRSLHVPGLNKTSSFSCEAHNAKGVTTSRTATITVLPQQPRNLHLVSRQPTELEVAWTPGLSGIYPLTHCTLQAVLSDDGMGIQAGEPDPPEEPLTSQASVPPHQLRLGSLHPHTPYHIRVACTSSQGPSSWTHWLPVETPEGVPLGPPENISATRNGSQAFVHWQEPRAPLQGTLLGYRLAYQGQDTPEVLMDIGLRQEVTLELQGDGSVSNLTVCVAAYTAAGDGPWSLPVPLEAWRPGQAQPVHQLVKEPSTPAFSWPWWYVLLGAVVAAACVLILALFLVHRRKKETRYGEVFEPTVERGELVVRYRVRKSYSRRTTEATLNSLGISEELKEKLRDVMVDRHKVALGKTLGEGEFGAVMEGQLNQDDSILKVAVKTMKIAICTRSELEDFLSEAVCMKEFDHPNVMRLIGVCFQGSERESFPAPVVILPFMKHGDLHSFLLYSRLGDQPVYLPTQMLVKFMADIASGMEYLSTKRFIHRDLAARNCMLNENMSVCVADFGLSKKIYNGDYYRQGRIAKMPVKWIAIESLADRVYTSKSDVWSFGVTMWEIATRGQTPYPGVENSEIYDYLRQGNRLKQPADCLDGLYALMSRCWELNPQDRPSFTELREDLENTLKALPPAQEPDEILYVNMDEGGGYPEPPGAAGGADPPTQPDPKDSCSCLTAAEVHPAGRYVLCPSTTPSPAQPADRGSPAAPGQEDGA
In words: Inhibition of recombinant AXL (unknown origin) using poly (Glu,Tyr) 4:1 as substrate after 60 mins by ELISA.

Data set [13] deals with Cyclin-dependent kinase 4 (Homo sapiens, UniProt P11802). In words: Inhibition of CDK4 (unknown origin) by FRET assay.
The target of data set [14] is Cyclin-dependent kinase 6 (Homo sapiens, UniProt Q00534). As to the kind of experiment: Inhibition of CDK6 (unknown origin) by FRET assay.
Data set [15] in a line: Tmax in CD-1 mouse at 20 mg/kg, po by LC-MS/MS method. To be noted: in vivo. In kind it is ADME, organism-based.
Data set [16] can be described thus: Tmax in CD-1 mouse at 5 mg/kg, iv by LC-MS/MS method. The format is ADME, organism-based. To be noted: in vivo.
Data set [17] in a line: Cmax in Sprague-Dawley rat at 10 mg/kg, iv by LC-MS/MS method. To be noted: in vivo. On the set-up: dose 10 mg/kg, route intravenous. The format is ADME, organism-based.
The nature of data set [18]: Cmax in CD-1 mouse at 5 mg/kg, iv by LC-MS/MS method. In kind it is ADME, organism-based. On the set-up: dose 5 mg/kg, route intravenous. To be noted: in vivo.
Data set [19] is described as follows: AUC (0 to t) in Sprague-Dawley rat at 20 mg/kg, po by LC-MS/MS method. In kind it is ADME, organism-based. To be noted: in vivo.
Data set [20] can be described thus: AUC (0 to t) in Sprague-Dawley rat at 10 mg/kg, iv by LC-MS/MS method. In kind it is ADME, organism-based. To be noted: in vivo.
Data set [21] can be described thus: MRT in Sprague-Dawley rat at 10 mg/kg, iv by LC-MS/MS method. The format is ADME, organism-based. To be noted: in vivo.
Data set [22] is described as follows: MRT in CD-1 mouse at 5 mg/kg, iv by LC-MS/MS method. To be noted: in vivo. In kind it is ADME, organism-based.
Data set [23] is described as follows: Oral bioavailability in Sprague-Dawley rat at 20 mg/kg by LC-MS/MS method. To be noted: in vivo. In kind it is ADME, organism-based.
Data set [24] can be described thus: Protein binding in plasma (unknown origin). In kind it is ADME, cell-free. To be noted: read-out: PPB (converted).
A short description of data set [25]: Inhibition of FGFR3 mutant in human UM-UC-14 cells assessed as inhibition of cell proliferation after 72 hrs by cell counting kit-8 assay. In kind it is cell-based. To be noted: UMUC14, 72 h.
Data set [26] deals with Mus musculus. In words: Toxicity in nude mouse xenografted with human NCI-H1581 cells assessed as diarrhea at 20 mg/kg, po qd administered for 14 days. In kind it is organism-based. To be noted: in vivo, 336 h.
For data set [27], the system named is Mus musculus. In words: Unbound Cmax in CD-1 mouse at 5 mg/kg, iv by LC-MS/MS method. In kind it is ADME, organism-based. To be noted: in vivo.
Data set [28] has as its system Mus musculus. As to the kind of experiment: Toxicity in nude mouse xenografted with human NCI-H1581 cells assessed as body weight loss at 20 mg/kg, po qd administered for 14 days. The format is organism-based. To be noted: in vivo, 336 h.
The target in data set [29] is Tyrosine-protein kinase ABL1 (Homo sapiens, UniProt P00519).
Description: Inhibition of recombinant ABL (unknown origin) using poly (Glu,Tyr) 4:1 as substrate after 60 mins by ELISA

Sequence of Fibroblast growth factor receptor 4 (P22455 whole entry): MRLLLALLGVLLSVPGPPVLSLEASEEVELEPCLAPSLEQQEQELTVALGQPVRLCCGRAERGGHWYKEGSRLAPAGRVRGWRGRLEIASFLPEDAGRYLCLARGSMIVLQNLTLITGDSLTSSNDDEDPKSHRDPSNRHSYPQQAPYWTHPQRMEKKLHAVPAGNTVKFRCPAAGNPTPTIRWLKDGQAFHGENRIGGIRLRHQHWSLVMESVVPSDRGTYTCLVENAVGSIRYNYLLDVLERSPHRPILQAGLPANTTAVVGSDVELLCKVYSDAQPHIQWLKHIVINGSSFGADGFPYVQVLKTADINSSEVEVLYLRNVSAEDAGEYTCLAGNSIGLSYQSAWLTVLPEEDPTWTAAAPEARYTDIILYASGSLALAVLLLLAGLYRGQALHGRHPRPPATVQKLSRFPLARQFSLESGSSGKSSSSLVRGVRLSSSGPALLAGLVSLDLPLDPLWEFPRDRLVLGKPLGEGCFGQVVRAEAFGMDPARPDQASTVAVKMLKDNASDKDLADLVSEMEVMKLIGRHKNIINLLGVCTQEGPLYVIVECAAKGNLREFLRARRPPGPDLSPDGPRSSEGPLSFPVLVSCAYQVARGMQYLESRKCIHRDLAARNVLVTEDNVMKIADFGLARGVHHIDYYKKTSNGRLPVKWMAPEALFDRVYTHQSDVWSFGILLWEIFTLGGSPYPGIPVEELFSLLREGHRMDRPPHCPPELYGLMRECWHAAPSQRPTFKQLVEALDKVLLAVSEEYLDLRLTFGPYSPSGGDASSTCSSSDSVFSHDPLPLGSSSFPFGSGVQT
Sequence of Cyclin-dependent kinase 6 (Q00534 whole entry): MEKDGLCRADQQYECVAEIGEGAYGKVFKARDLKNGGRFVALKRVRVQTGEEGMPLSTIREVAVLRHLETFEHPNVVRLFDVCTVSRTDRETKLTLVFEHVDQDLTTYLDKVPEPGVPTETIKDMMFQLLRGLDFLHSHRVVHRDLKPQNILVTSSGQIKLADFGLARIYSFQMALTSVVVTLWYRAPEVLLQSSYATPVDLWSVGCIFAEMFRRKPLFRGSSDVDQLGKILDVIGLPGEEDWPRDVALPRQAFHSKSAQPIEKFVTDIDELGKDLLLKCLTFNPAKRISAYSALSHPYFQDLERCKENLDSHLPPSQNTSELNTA
Sequence of Fibroblast growth factor receptor 3 (P22607 whole entry): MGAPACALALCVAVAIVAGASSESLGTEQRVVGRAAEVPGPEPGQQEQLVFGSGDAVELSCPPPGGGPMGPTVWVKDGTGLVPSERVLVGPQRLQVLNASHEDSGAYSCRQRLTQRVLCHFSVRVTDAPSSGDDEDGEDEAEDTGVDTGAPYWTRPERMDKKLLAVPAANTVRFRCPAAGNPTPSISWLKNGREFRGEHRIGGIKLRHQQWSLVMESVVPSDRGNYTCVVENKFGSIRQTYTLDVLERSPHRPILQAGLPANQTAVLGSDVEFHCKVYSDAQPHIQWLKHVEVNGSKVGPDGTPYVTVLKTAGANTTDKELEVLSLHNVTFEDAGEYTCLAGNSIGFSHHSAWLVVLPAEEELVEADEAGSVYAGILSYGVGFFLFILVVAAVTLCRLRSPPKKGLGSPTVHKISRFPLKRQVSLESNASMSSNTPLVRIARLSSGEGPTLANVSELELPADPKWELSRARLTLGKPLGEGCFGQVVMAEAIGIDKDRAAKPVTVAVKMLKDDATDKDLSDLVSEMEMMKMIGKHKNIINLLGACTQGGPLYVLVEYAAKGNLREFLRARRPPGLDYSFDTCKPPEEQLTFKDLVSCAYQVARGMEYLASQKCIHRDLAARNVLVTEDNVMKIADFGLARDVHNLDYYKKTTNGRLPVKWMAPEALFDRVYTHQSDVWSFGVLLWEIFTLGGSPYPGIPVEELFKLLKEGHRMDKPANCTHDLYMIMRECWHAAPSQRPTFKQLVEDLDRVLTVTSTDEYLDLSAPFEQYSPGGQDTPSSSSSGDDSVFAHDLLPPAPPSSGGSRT
Sequence of Epidermal growth factor receptor (P00533 25-1210 T790M/L858R limits assumed): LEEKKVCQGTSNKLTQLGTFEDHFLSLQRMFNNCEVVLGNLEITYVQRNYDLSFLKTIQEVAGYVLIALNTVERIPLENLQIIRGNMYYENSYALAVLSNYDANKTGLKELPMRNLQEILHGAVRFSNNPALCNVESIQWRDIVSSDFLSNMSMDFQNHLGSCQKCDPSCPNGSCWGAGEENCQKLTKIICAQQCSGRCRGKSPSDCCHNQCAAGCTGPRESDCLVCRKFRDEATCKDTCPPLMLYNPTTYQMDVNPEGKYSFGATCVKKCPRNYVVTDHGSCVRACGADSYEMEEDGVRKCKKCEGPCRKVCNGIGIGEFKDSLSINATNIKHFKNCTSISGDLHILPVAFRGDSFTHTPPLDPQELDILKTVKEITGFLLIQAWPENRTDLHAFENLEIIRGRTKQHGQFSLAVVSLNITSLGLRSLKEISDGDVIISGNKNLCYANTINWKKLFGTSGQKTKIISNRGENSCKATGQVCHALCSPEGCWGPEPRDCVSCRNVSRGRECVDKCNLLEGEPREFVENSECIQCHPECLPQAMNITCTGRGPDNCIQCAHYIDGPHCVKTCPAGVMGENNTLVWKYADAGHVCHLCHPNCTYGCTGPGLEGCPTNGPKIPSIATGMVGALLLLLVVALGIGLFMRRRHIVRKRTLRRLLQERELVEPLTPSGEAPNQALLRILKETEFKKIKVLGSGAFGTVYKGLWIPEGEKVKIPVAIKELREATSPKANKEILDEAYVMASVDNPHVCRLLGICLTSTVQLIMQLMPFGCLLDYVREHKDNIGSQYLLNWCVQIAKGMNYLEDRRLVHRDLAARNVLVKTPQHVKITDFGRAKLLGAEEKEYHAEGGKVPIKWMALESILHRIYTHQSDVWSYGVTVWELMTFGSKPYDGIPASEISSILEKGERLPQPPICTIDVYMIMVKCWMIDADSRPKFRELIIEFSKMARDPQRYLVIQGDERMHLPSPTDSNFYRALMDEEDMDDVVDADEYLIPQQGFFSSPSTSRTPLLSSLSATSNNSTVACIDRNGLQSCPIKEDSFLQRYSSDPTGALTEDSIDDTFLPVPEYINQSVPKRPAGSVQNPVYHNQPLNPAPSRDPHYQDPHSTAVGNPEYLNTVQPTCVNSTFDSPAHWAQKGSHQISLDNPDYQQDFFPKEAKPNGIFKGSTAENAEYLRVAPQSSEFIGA
Sequence of Vascular endothelial growth factor receptor 1 (P17948 whole entry): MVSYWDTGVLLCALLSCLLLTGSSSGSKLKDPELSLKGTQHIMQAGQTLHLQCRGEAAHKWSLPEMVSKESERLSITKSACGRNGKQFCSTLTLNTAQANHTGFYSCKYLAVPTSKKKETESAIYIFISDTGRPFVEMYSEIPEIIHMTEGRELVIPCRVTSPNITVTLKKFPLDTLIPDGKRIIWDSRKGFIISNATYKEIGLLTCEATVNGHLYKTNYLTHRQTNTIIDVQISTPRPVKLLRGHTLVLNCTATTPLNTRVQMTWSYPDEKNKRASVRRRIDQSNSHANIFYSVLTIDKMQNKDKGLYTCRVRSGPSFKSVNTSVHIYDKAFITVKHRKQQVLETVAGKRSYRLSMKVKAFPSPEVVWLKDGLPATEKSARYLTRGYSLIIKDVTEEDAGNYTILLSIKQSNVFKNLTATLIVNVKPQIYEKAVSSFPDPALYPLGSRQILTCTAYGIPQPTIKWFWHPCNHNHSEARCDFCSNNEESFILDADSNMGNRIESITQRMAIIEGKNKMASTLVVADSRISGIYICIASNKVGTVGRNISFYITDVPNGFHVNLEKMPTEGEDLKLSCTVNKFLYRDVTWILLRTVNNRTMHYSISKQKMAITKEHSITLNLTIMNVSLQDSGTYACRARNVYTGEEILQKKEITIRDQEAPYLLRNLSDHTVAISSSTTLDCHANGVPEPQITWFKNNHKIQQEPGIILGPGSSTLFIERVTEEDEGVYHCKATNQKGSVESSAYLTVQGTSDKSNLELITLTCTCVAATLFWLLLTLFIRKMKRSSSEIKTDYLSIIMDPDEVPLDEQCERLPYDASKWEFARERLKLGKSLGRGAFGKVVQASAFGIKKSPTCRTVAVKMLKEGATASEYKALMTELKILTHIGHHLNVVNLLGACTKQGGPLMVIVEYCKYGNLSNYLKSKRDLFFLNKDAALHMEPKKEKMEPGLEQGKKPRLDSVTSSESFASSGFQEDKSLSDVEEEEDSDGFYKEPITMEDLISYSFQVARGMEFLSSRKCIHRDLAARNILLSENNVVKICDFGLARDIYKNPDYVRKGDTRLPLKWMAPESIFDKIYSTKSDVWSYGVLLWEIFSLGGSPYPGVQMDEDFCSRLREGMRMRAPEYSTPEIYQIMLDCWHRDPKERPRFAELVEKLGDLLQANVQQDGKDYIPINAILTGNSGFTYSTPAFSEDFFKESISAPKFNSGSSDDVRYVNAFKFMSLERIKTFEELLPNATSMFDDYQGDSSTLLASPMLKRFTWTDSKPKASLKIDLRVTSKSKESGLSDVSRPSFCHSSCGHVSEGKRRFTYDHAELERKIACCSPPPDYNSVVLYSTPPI
Sequence of Cyclin-dependent kinase 4 (P11802 whole entry): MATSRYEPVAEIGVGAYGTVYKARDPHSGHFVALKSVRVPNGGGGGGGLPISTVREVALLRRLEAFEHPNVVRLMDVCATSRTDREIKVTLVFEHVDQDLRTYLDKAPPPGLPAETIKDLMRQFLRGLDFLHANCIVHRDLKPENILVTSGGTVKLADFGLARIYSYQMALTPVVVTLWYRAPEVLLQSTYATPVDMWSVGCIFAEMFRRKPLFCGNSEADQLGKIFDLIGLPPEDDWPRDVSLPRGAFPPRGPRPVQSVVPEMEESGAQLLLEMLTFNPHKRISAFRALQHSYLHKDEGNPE

Take `Cc1n[nH]c2ccc(-c3cc(N[C@@H](CO)c4ccccc4)cnc3-c3cc(F)ccc3O)cc12`: the IC50 came to 18 nM in data set [1]; 1.6 nM in data set [2]; 27.5 nM in [3]; 299 nM in data set [4]; 1.7 nM in data set [5]; 6 nM in data set [6]. For the same compound, the IC50 was 0.8 nM in data set [7]; 1 to 10 nM in data set [8]; 417 nM on Insulin receptor; greater than 100 nM in [9]; greater than 10 nM in [10]; greater than 1000 nM in data set [11]. Also, the IC50 in data set [12] was greater than 1000 nM; in [13], greater than 1000 nM; in [14], greater than 1000 nM; in data set [25], 128 nM; in data set [29] it was 2.9 nM. The Tmax stood at 0.42 h in data set [15] and 1.5 h in data set [16]. Besides, the figures for the Cmax in data set [17] and in [18] were 6540 ng/mL and 106 ng/mL, respectively. The AUC(0-t) in [19] turned out to be 16600 ng·h/mL; in [20], 13700 ng·h/mL. Further, the MRT in data set [21] is 3.41 h; in data set [22] it was 3.74 h. In [23], this compound had a bioavailability of 60%. Also, the fraction unbound in [24] was 0.0044. Also, the Activity result in the data set with Mus musculus [26] and with Mus musculus [28] was “Toxic” throughout. In the data set on Mus musculus [27], this compound came in with a fCmax of 1.1 nM.

As for `Cc1n[nH]c2ccc(-c3cc(N[C@@H](CO)c4ccccc4)cnc3-c3ccc(F)cc3O)cc12`, the IC50 in data set [1] was determined as 25.2 nM; in [2] it was 4.7 nM; in data set [3], 15.9 nM; in data set [4], 93.3 nM; in [5] it was 2.6 nM; in data set [6] it was 1.3 nM. For the same compound, the IC50 was greater than 10 nM in [8]; 888 nM on Insulin receptor; greater than 100 nM in data set [9]; greater than 10 nM in data set [10]; greater than 1000 nM in [11]; greater than 1000 nM in [12]. Also, the figures for the IC50 in [13], in data set [14] and in data set [29] were greater than 1000 nM, greater than 1000 nM and 6.1 nM, respectively.

As to `Cc1n[nH]c2ccc(-c3cc(N[C@@H](CO)c4ccccc4)cnc3-c3cc(Cl)ccc3O)cc12`, the IC50 was 55.8 nM in data set [1]; 8.6 nM in data set [2]; 73.1 nM in data set [3]; 61.7 nM in data set [4]; 3.7 nM in data set [5]; 8.6 nM in [6]. The IC50 in data set [8] is greater than 10 nM; at Insulin receptor it was 91.6 nM; in [9] it was greater than 100 nM; in [10], greater than 10 nM; in data set [11], greater than 1000 nM; in data set [12], greater than 1000 nM. In addition, the IC50 was greater than 1000 nM in [13], greater than 1000 nM in [14] and 6.6 nM in data set [29].

As for `OC[C@H](Nc1cnc(-c2cc(Cl)ccc2O)c(-c2ccc3cnccc3c2)c1)c1ccccc1`, the IC50 in data set [1] was determined as 16.1 nM; in [2], 2 nM; in data set [3], 23 nM; in data set [4], 7.4 nM; in data set [5], 0.8 nM; in data set [6] it was 1.9 nM. Also, the IC50 in [8] was greater than 10 nM; on Insulin receptor it was 431 nM; in data set [9] it was greater than 100 nM; in data set [10], greater than 10 nM; in data set [11], 196 nM; in [12], greater than 1000 nM. Moreover, the IC50 is greater than 1000 nM in data set [13], greater than 1000 nM in data set [14] and 4.3 nM in data set [29].
